Test results reported in patent US11912685B2, “Biphenyl diaryl pyrimidine derivative with aromatic heterocyclic structure” (priority 2021, dated 2024).

How the values were obtained:
[1] = test system: MT-4 cells; assay: Cytotoxicity in uninfected MT-4 cells (MTT assay); assay type: cell-based; conditions: Mean ± SD, at least three independent experiments
Method: (§1) The test was performed as follows. […] The toxicity test was performed in parallel with the anti-HIV activity test. […] Moreover, a selection index (SI=[…]) was also calculated.
(§2) The compound to be tested was dissolved in DMSO or water and diluted gradiently with phosphate-buffered saline solution. […] 100 μL of a virus dilution at an appropriate concentration was added, and co-cultured with the MT-4 cells at 37° C. for 1 h. Then, the MT-4 cells were collected, washed three times, resuspended with a culture medium with or without the compound to be tested and cultured at 37° C. and 5% CO2 for 7 d. On the third day of the infection, the culture medium was correspondingly replaced with the culture medium with or without the compound to be tested. Each culture process was repeated twice. The HIV-induced cytopathy was monitored daily with a reverse optical microscope. […] Considering that the DMSO may affect the antiviral activity of the compound to be tested, it is necessary to design a blank control using the same concentration of DMSO.

[2] = prior art; cited from earlier work
[3] = test system: HIV-1-IIIB strain; assay: Anti-HIV activity: protection of HIV-infected MT-4 cells from HIV-induced cytopathy (MTT assay); conditions: for SI(IIIB), selection index (CC50/EC50): HIV-1 IIIB, MT-4 cells; for EC50: Human immunodeficiency virus 1, IIIB, MT4
Method: as §1
The anti-HIV activity of the compound to be tested was evaluated by the inhibitory effect on the HIV-induced cytopathy in the cell.
Viruses: HIV-1-IIIB strain and HIV-2 ROD strain.
as §2

[4] = Cytotoxicity in uninfected MT-4 cells (MTT assay); assay type: cell-based; conditions: human, uninfected MT-4 cells, Mean ± SD, at least three independent experiments
Method: as §1, §2

## Cc1cc(C#N)cc(C)c1Oc1nc(Nc2ccc(C#N)cc2)nc(N)c1Br [ETR, Etravirine, reference compound]
[1]
  CC50: > 4600 nM
[2]
  water solubility: < 1 µg/mL
[3]
  SI(IIIB), selection index (CC50/EC50): >1159
  EC50: 4 ± 0.68 nM

## O=C1Nc2ccc(Cl)cc2[C@@](C#CC2CC2)(C(F)(F)F)O1 [EFV, Efavirenz, reference compound]
[1]
  CC50: > 6330 nM
[3]
  SI(IIIB), selection index (CC50/EC50): >1600
  EC50: 4 ± 1.5 nM

## N#Cc1ccc(Nc2nccc(Nc3c(F)cc(-c4ccoc4)cc3F)n2)cc1 [compound 5]
[1]
  CC50: 10600 ± 1800 nM
[3]
  SI(IIIB), selection index (CC50/EC50): 3291
  EC50: 3.2 ± 0.18 nM

## N#Cc1ccc(Nc2nccc(Nc3c(F)cc(-c4ccc(N)cc4)cc3F)n2)cc1 [compound 23]
[1]
  CC50: > 303000 nM
[3]
  SI(IIIB), selection index (CC50/EC50): >32,895
  EC50: 9.2 ± 3.6 nM

## N#Cc1ccc(Nc2nccc(Nc3c(F)cc(-c4ccnc(C#N)c4F)cc3F)n2)cc1 [compound 14]
[1]
  CC50: > 282000 nM
[3]
  SI(IIIB), selection index (CC50/EC50): >142,857
  EC50: 1.98 ± 0.42 nM

## N#Cc1ccc(Nc2nccc(Nc3c(F)cc(-c4cccnc4)cc3F)n2)cc1 [compound 2]
[1]
  CC50: 242000 ± 42000 nM
[3]
  SI(IIIB), selection index (CC50/EC50): 32,698
  EC50: 7.4 ± 1.76 nM

## N#Cc1ccc(Nc2nccc(Nc3c(F)cc(-c4cc(Cl)nc(Cl)c4)cc3F)n2)cc1 [compound 10]
[1]
  CC50: 5400 ± 540 nM
[3]
  SI(IIIB), selection index (CC50/EC50): 97
  EC50: 56 ± 32.6 nM

## N#Cc1ccc(Nc2nccc(Nc3c(F)cc(-c4ccnc(-c5ccnc(Cl)c5)c4)cc3F)n2)cc1 [compound 19]
[1]
  CC50: 51000 ± 41000 nM
[3]
  SI(IIIB), selection index (CC50/EC50): 3068
  EC50: 16.8 ± 3 nM

## Cc1ccnc2c1NC(=O)c1cccnc1N2C1CC1 [NVP, Nevirapine, reference compound]
[4]
  CC50 at 7 d: > 15000 nM

## N#Cc1ccc(Nc2nccc(Nc3c(F)cc(-c4cc(F)nc(F)c4)cc3F)n2)cc1 [compound 16]
[1]
  CC50: 11000 ± 6800 nM
[3]
  SI(IIIB), selection index (CC50/EC50): 1966
  EC50: 5.6 ± 1.5 nM

## N#Cc1ccc(Nc2nccc(Nc3c(F)cc(-c4coc5ccccc45)cc3F)n2)cc1 [compound 12]
[1]
  CC50: 87000 ± 54000 nM
[3]
  SI(IIIB), selection index (CC50/EC50): 1991
  EC50: 44 ± 10.1 nM

## N#Cc1ccc(Nc2nccc(Nc3c(F)cc(-c4cncnc4)cc3F)n2)cc1 [compound 3]
[1]
  CC50: 2700 ± 1700 nM
[3]
  SI(IIIB), selection index (CC50/EC50): 229
  EC50: 11.9 ± 3.2 nM

## N#Cc1ccc(Nc2nccc(Nc3c(F)cc(-c4cn[nH]c4)cc3F)n2)cc1 [compound 8]
[1]
  CC50: 3100 ± 1700 nM
[3]
  SI(IIIB), selection index (CC50/EC50): 298
  EC50: 10 ± 6 nM

## N#Cc1ccc(Nc2nccc(Nc3c(F)cc(-c4cccs4)cc3F)n2)cc1 [compound 6]
[1]
  CC50: > 308000 nM
[3]
  SI(IIIB), selection index (CC50/EC50): >74,627
  EC50: 4.1 ± 2 nM

## Cc1cc(-c2cc(F)c(Nc3ccnc(Nc4ccc(C#N)cc4)n3)c(F)c2)cc(C)n1 [compound 21]
[1]
  CC50: 1200 ± 110 nM
[3]
  SI(IIIB), selection index (CC50/EC50): 21
  EC50: 56 ± 18 nM

## COc1cc(-c2cc(F)c(Nc3ccnc(Nc4ccc(C#N)cc4)n3)c(F)c2)ccn1 [compound 22]
[1]
  CC50: 6700 ± 980 nM
[3]
  SI(IIIB), selection index (CC50/EC50): 501
  EC50: 13 ± 2.9 nM

## N#Cc1ccc(Nc2nccc(Nc3c(F)cc(-c4ccnc(F)c4)cc3F)n2)cc1 [compound 9]
[1]
  CC50: 5000 ± 900 nM
[3]
  SI(IIIB), selection index (CC50/EC50): 1311
  EC50: 3.8 ± 3.2 nM

## N#Cc1ccc(Nc2nccc(Nc3c(F)cc(-c4ccnc(Cl)c4)cc3F)n2)cc1 [compound 18]
[1]
  CC50: 4200 ± 450 nM
[3]
  SI(IIIB), selection index (CC50/EC50): 622
  EC50: 6.8 ± 3.4 nM

## Cc1cc(-c2cc(F)c(Nc3ccnc(Nc4ccc(C#N)cc4)n3)c(F)c2)ccn1 [compound 20]
[1]
  CC50: 3200 ± 1100 nM
[3]
  SI(IIIB), selection index (CC50/EC50): 777
  EC50: 4.1 ± 1.1 nM

## N#Cc1ccc(Nc2nccc(Nc3c(F)cc(-c4ccncc4F)cc3F)n2)cc1 [compound 15]
[1]
  CC50: 3300 ± 1500 nM
[3]
  SI(IIIB), selection index (CC50/EC50): 2566
  EC50: 1.3 ± 0.6 nM

## N#Cc1ccc(Nc2nccc(Nc3c(F)cc(-c4ccsc4)cc3F)n2)cc1 [compound 7]
[1]
  CC50: 55400 ± 18700 nM
[3]
  SI(IIIB), selection index (CC50/EC50): 14032
  EC50: 3.9 ± 1.4 nM

## N#Cc1ccc(Nc2nccc(Nc3c(F)cc(-c4ccco4)cc3F)n2)cc1 [compound 4]
[1]
  CC50: 16600 ± 6900 nM
[3]
  SI(IIIB), selection index (CC50/EC50): 7910
  EC50: 2.1 nM

## N#Cc1ccc(Nc2nccc(Nc3c(F)cc(-c4ccnc(Cl)c4Cl)cc3F)n2)cc1 [compound 11]
[1]
  CC50: 20000 ± 16000 nM
[3]
  SI(IIIB), selection index (CC50/EC50): 3673
  EC50: 5.5 ± 0.7 nM

## N#Cc1ccc(Nc2nccc(Nc3c(F)cc(-c4ccnc(F)c4F)cc3F)n2)cc1 [compound 17]
[1]
  CC50: > 286000 nM
[3]
  SI(IIIB), selection index (CC50/EC50): >147,059
  EC50: 2 ± 0.48 nM

## N#Cc1ccc(Nc2nccc(Nc3c(F)cc(-c4csc5ccccc45)cc3F)n2)cc1 [compound 13]
[1]
  CC50: 16000 ± 6000 nM
[3]
  SI(IIIB), selection index (CC50/EC50): 132
  EC50: 124 ± 78 nM
